Assay results: patent US8975282B2, “Substituted pyrazolone compounds and methods of use” (Calitor Sciences, LLC, priority 2012, dated 2015)
Where two headings read alike, the source gives them in different places.

How the values were obtained:
[1] = Compound stability in rat liver microsomes; assay type: in vitro ADME; conditions: for stability / metabolism in rat liver microsomes (in words): incubated in rat liver microsomes; for half-life at 5 μM / CLint scaled at 5 μM: pH 7.4, rat liver microsomes; for half-life at 5 μM: 0.5 mg protein/mL, compound 5 μM, NADPH 1.0 mM, 37° C.; for CLint scaled at 5 μM: in vivo CLint extrapolated
Experimental: Human or rat liver microsomes incubations were conducted in duplicate in polypropylene tubes. The typical incubation mixtures consisted of human or rat liver microsomes (0.5 mg protein/mL), compounds of interest (5 μM) and NADPH (1.0 mM) in a total volume of 200 μL, potassium phosphate buffer (PBS, 100 mM, pH 7.4). Compounds were dissolved in DMSO and diluted with PBS such that the final concentration of DMSO was 0.05%. The enzymatic reactions were commenced with the addition of protein after a 3-min preincubation and incubated in a water bath open to the air at 37° C. Reactions were terminated at various time points (0, 5, 10, 15, 30, 60 min) by adding equal volume of ice-cold acetonitrile. The samples were stored at −80° C. until LC/MS/MS assays.
The concentrations of compounds in the incubation mixtures of human or rat liver microsomes were determined by a LC/MS/MS method. The ranges of the linearity in the concentration range were determined for each tested compounds.
A parallel incubation was performed using denatured microsomes as the negative control, and reactions were terminated at various time points (0, 15, 60 min) after incubation at 37° C.
Dextromethorphan (70 μM) was selected as the positive control, and reactions were terminated at various time points (0, 5, 10, 15, 30, 60 min) after incubation at 37° C. Both positive and negative control samples were included in each assay to ensure the integrity of the microsomal incubation system.
The concentrations of compounds in human or rat liver microsome incubations were plotted as a percentage of the relevant zero time point control for each reaction. The in vivo CLint were extrapolated (ref: Naritomi Y, Terashita S, Kimura S, Suzuki A, Kagayama A, Sugiyama Y. Prediction of human hepatic clearance from in vivo animal experiments and in vitro metabolic studies with liver microsomes from animals and humans. Drug Metabolism and Disposition 2001, 29: 1316-1324.)

[2] = Pharmacokinetics after intravenous and oral administration in rats; assay type: in vivo, rat; conditions: for Cl/F / AUC(0-t) / half-life / Vd: iv dosing; for F: oral bioavailability; for AUC(0-t) / half-life / Vd: rat, plasma; for Vd: read-out: Vss
Experimental: The compounds disclosed herein are assessed in pharmacokinetic studies in mice, rats, dogs or monkeys. The compounds are administered as a water solution, 2% HPMC+1% TWEEN®80 in water solution, 5% DMSO+5% solutol in saline, 4% MC suspension or capsule. For the intravenous administration, the animals are generally given at 1 or 2 mg/kg dose. For the oral (p.o.) dosing, mice and rats are generally given 5 or 10 mg/kg dose, and dogs and monkeys are generally given 10 mg/kg dose. The blood samples (0.3 mL) are drawn at 0.25, 0.5, 1.0, 2.0, 3.0, 4.0, 6.0, 8.0, 12 and 24 h time points or 0.083, 0.25, 0.5, 1.0, 2.0, 4.0, 6.0, 8.0 and 24 h time points and centrifuged at 3,000 or 4000 rpm for 2 to 10 min. The plasma solutions are collected, stored at −20° C. or -70° C. until analyzed by LC/MS/MS as described above.

KDR (h) = KDR (h) (Homo sapiens (Human), UniProt P35968); assay: KINOMEscan competition binding assay, KDR (h)
c-Met (h) = c-Met (h) (Homo sapiens (Human), UniProt P08581); assay: KINOMEscan competition binding assay, c-Met (h)
U87MG glioblastoma cells = assay: U87MG tumor xenograft model, tumor growth inhibition; assay type: in vivo; conditions: nude mice, oral gavage once a day, 12 days
Experimental: The efficacy of compounds disclosed herein was evaluated in a standard murine model of tumorigenesis. Human tumor cells (U87MG glioblastoma cells from ATCC) were expended in culture, harvested, and injected subcutaneously onto the rear flank of 6-7 week old female athymic nude mice (BALB/cA nu/nu, Hunan SLAC Laboratory Animal, Co.) (n=6-10 for vehicle group and for each dosing group). When tumors reached a volume of 100-250 mm^3, animals were randomly divided into vehicle control (for example, 5% DMSO+70% Captisol® (30%), 7% HCl (pH1), 18% Captisol® (30%); or 7% DMSO, 7% HCl (pH1), 70% Captisol® (30%), 16% Captisol® (30%), or the like) and compound groups. Subsequent administration of compound by oral gavage begins anywhere from day 0 to day 15 post tumor cell challenge and generally continues with once a day for the duration of the experiment.
Progression of tumor growth is assessed by tumor volumes and recorded as a function of time. The long (L) and short (W) axes of the subcutaneous tumors were measured with calipers twice weekly, and the tumor volume (TV) calculated as (L×W^2)/2). TGI was calculated from the difference between the median tumor volumes of vehicle-treated and drug-treated mice, expressed as a percentage of the median tumor volume of the vehicle-treated control group, by the following relation:
[formula] Initial statistical analysis is done by repeated measures analysis of variance (RMANOVA), followed by Scheffe psot hoc testing for multiple comparisons. Vehicle alone (5% DMSO+70% Captisol® (30%), 7% HCl (pH1), 18% Captisol® (30%); or 7% DMSO, 7% HCl (pH1), 70% Captisol® (30%), 16% Captisol® (30%), or the like) is the negative control.

Sequence of c-Met (h) (P08581 25-1390): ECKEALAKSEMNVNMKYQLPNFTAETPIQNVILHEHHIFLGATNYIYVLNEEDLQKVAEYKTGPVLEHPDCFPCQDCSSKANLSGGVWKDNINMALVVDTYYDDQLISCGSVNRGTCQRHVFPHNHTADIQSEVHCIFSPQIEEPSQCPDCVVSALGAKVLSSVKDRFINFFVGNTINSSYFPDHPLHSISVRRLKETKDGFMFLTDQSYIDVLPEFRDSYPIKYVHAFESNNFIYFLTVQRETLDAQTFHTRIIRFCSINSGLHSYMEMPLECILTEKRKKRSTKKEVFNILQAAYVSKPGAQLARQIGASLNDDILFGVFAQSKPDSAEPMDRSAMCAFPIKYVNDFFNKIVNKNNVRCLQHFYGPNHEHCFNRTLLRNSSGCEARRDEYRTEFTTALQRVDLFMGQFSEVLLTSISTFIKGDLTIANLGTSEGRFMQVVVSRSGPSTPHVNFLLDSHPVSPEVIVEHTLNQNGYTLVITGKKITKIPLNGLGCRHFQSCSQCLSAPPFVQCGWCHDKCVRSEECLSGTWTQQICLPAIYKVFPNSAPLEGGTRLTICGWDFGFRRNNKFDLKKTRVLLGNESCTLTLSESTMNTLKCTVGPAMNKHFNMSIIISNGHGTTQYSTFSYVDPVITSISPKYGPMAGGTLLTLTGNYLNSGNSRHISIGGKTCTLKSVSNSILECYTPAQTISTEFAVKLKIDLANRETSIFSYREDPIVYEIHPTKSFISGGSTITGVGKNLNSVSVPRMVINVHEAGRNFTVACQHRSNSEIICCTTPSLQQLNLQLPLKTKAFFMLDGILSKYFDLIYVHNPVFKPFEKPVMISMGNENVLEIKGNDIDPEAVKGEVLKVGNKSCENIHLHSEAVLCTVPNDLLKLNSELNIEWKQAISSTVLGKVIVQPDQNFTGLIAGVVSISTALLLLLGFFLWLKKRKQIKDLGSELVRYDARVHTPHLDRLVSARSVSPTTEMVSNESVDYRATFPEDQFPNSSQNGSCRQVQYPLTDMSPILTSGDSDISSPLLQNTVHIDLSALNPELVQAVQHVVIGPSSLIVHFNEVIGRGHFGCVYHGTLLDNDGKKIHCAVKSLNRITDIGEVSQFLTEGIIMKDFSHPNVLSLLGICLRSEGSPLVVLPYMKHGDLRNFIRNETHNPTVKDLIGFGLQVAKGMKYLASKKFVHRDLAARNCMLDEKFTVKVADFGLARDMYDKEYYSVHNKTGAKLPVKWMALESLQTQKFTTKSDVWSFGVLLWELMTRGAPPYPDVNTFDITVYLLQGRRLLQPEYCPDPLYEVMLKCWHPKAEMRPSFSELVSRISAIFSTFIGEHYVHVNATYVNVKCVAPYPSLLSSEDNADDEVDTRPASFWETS
Sequence of KDR (h) (P35968 20-1356): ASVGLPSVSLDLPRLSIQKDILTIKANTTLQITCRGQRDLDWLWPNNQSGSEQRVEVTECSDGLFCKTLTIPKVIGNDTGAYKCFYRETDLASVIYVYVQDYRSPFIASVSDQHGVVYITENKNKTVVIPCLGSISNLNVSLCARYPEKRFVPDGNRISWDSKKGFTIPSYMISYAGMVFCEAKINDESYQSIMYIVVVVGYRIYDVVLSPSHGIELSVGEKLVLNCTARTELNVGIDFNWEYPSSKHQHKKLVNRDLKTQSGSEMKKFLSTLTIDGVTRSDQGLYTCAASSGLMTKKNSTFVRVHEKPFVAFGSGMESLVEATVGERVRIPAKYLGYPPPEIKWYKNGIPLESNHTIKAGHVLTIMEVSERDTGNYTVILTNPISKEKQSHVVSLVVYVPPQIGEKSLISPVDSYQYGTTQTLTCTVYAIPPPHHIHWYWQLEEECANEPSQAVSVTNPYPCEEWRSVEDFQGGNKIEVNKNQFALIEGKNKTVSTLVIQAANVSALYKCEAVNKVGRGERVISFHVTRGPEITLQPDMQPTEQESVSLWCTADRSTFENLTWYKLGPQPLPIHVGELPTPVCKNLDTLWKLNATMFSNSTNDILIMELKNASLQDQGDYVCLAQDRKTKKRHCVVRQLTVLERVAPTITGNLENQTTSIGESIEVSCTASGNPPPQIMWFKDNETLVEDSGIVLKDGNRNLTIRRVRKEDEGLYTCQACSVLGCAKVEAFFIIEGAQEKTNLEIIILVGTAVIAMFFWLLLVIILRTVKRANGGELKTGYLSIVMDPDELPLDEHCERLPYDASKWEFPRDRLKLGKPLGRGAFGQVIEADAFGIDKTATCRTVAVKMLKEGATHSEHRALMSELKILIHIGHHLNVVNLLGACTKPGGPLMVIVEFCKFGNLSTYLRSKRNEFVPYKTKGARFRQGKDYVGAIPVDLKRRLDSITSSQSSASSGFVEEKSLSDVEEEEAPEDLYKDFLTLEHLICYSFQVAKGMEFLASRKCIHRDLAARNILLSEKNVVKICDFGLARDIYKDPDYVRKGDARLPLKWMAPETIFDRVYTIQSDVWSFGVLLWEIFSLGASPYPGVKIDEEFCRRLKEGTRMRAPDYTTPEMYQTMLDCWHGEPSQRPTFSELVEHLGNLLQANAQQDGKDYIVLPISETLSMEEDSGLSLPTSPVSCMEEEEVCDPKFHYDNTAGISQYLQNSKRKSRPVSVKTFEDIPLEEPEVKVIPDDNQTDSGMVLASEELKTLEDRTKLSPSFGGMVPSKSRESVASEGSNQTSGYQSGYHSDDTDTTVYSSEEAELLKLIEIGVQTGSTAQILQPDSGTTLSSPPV

stability / metabolism in rat liver microsomes (in words) [1]	half-life at 5 μM [1] [h]	CLint scaled at 5 μM [1] [mL/min/kg]	Cl/F ([2]; dose 2 mg/kg) [mL/min/kg]	F ([2]; iv dose 2 mg/kg) [%]	AUC(0-t) ([2]; dose 2 mg/kg) [ng·h/mL]	half-life ([2]; dose 2 mg/kg) [h]	Vd ([2]; dose 2 mg/kg) [L/kg]	Kd (KDR (h)) [nM]	Kd (c-Met (h)) [nM]	Cl/F ([2]; dose 1 mg/kg) [mL/min/kg]	F ([2]; iv dose 1 mg/kg) [%]	AUC(0-t) ([2]; dose 1 mg/kg) [ng·h/mL]	half-life ([2]; dose 1 mg/kg) [h]	Vd ([2]; dose 1 mg/kg) [L/kg]	Structure (SMILES)	TGI% (on last day of dosing) (U87MG glioblastoma cells; 6 mg/kg) [%]	TGI% (on last day of dosing) (U87MG glioblastoma cells; 30 mg/kg) [%]
little metabolized	11.7	3.53	0.83	85.88	38300	4.06	0.27	3.2	2.4						Cc1c(C(=O)Nc2ccc(Oc3ccnc(NC(=O)C4CC4)c3)cn2)c(=O)n(-c2ccccc2)n1C [Example 8, N-(5-((2-(cyclopropanecarboxamido)pyridin-4-yl)oxy)pyridin-2-yl)-1,5-dimethyl-3-oxo-2-phenyl-2,3-dihydro-1H-pyrazole-4-carboxamide]	32	78
								450	200						Cc1c(C(=O)Nc2ccc(Oc3ccnc(C(N)=O)c3)c(F)c2)c(=O)n(-c2ccccc2)n1C [Example 10, 4-(4-(1,5-dimethyl-3-oxo-2-phenyl-2,3-dihydro-1H-pyrazole-4-carboxamido)-2-fluorophenoxy)picolinamide]		
little metabolized	3.93	10.5						6.3	0.5	0.83	133.5	14000	4.61	0.34	Cc1c(C(=O)Nc2ccc(Oc3ccnc(NC(=O)C4CC4)c3)c(F)c2)c(=O)n(-c2ccccc2)n1C [Example 11, N-(4-((2-(cyclopropanecarboxamido)pyridin-4-yl)oxy)-3-fluorophenyl)-1,5-dimethyl-3-oxo-2-phenyl-2,3-dihydro-1H-pyrazole-4-carboxamide]	56	97
little metabolized	7.06	5.86						2.9	0.21	0.67	94.49	23400	5.95	0.31	Cc1c(C(=O)Nc2ccc(Oc3ccnc(NC(=O)C4CC4)c3)cc2)c(=O)n(-c2ccccc2)n1C [Example 16, N-(4-((2-(cyclopropanecarboxamido)pyridin-4-yl)oxy)phenyl)-1,5-dimethyl-3-oxo-2-phenyl-2,3-dihydro-1H-pyrazole-4-carboxamide]		
